This passage reports Activity results from ChEMBL document CHEMBL5143508, “Design, synthesis and biological evaluation of novel o-aminobenzamide derivatives as potential anti-gastric cancer agents in vitro and in vivo” (Eur J Med Chem, 2022).

Data set [1] concerns HGC-27. The data set can be described thus: Induction of apoptosis in human HGC-27 cells assessed as early apoptotic cells at 2 uM incubated for 48 hrs by annexin V FITC/propidium iodide staining based flow cytometry (reference value: 0.66 %). In kind it is functional.
Data set [2] concerns HGC-27. Kind of data set: Induction of apoptosis in human HGC-27 cells assessed as late apoptotic cells at 0.5 uM incubated for 48 hrs by annexin V FITC/propidium iodide staining based flow cytometry (reference value: 5.14 %). In kind it is functional. (A flow cytometer gives signals particle by particle.)
The test system of data set [3] is HGC-27. The data set can be described thus: Induction of apoptosis in human HGC-27 cells assessed as upregulation in cleaved caspase-9 expression at 0.5 to 8 uM incubated for 48 hrs by Western blot analysis. Format: functional, cell-based. The settings on record: dose 0.5-8 µM. For orientation: A western blot detects proteins with antibodies after separation by electrophoresis.

For data set [4], the system named is HGC-27. The data set can be described thus: Induction of apoptosis in human HGC-27 cells assessed as upregulation in cleaved caspase-3 expression at 0.5 to 8 uM incubated for 48 hrs by Western blot analysis. In kind it is functional, cell-based. The settings on record: dose 0.5-8 µM.
Data set [5] deals with MGC-803. The data set can be described thus: Induction of cell cycle arrest in human MGC-803 cells assessed as reduction in accumulation of cells at G0/G1 phase at 2.5 to 10 uM incubated for 24 hrs by PI staining based flow cytometry analysis. In kind it is functional. The settings on record: dose 2.5-10 µM.
In data set [6] the test system is HGC-27. The data set can be described thus: Induction of cell cycle arrest in human HGC-27 cells assessed as reduction in accumulation of cells at S phase at 0.5 to 8 uM incubated for 24 hrs by PI staining based flow cytometry analysis. Format: functional. Particulars: dose 0.5-8 µM.
Data set [7] concerns MGC-803. Kind of data set: Induction of apoptosis in human MGC-803 cells assessed as early apoptotic cells at 20 uM incubated for 48 hrs by annexin V FITC/propidium iodide staining based flow cytometry (reference value: 0.42 %). In kind it is functional.
The subject of data set [8] is MGC-803. The data set can be described thus: Induction of cell cycle arrest in human MGC-803 cells assessed as reduction in accumulation of cells at G0/G1 phase at 5 to 20 uM incubated for 24 hrs by PI staining based flow cytometry analysis. Format: functional. Particulars: dose 5-20 µM.
Data set [9] relates to HGC-27. The data set can be described thus: Induction of apoptosis in human HGC-27 cells assessed as early apoptotic cells at 0.4 uM incubated for 48 hrs by annexin V FITC/propidium iodide staining based flow cytometry (reference value: 0.66 %). Format: functional.
The nature of data set [10]: Toxicity in BALB/c mouse xenografted with human HGC-27 cells assessed as mean platelet volume at 150 mg/kg, po bid for 19 days. Format: organism-based. Particulars: in vivo, 456 h, time 19 day. A general note: A xenograft is tissue or cells of one species grown in another, often human tumour cells in immunodeficient mice.
Data set [11] has as its system HGC-27. Kind of data set: Induction of apoptosis in human HGC-27 cells assessed as upregulation in cytochrome c expression at 0.1 to 1.6 uM incubated for 48 hrs by Western blot analysis. Particulars: dose 0.1-1.6 µM. Format: functional, cell-based.
Data set [12] in a line: Acute toxicity in Kunming mouse assessed as effect on liver pathology at 1000 mg/kg, po measured after 14 days. In kind it is organism-based. The settings on record: in vivo, 336 h, time 14 day.
Data set [13] concerns HGC-27. Kind of data set: Induction of cell cycle arrest in human HGC-27 cells assessed as reduction in accumulation of cells at G2/M phase at 0.1 to 1.6 uM incubated for 24 hrs by PI staining based flow cytometry analysis. Particulars: dose 0.1-1.6 µM. Format: functional.
Data set [14] is described as follows: Acute toxicity in Kunming mouse assessed as effect on heart pathology at 1000 mg/kg, po measured after 14 days. Format: organism-based. The settings on record: in vivo, 336 h, time 14 day.
Data set [15] has as its system HGC-27. Kind of data set: Induction of cell cycle arrest in human HGC-27 cells assessed as reduction in accumulation of cells at S phase at 0.1 to 1.6 uM incubated for 24 hrs by PI staining based flow cytometry analysis. In kind it is functional. The settings on record: dose 0.1-1.6 µM.
Data set [16] has as its system HGC-27. The data set can be described thus: Induction of apoptosis in human HGC-27 cells assessed as upregulation in Bax expression at 0.1 to 1.6 uM incubated for 48 hrs by Western blot analysis. Format: functional, cell-based. Particulars: dose 0.1-1.6 µM.
The nature of data set [17]: Toxicity in BALB/c mouse xenografted with human HGC-27 cells assessed as mean platelet volume at 75 mg/kg, po bid for 19 days. Format: organism-based. The settings on record: in vivo, 456 h, time 19 day.
Data set [18] deals with MGC-803. The data set can be described thus: Induction of cell cycle arrest in human MGC-803 cells assessed as reduction in accumulation of cells at G2/M phase at 5 to 20 uM incubated for 24 hrs by PI staining based flow cytometry analysis. In kind it is functional. The settings on record: dose 5-20 µM.
The test system of data set [19] is HGC-27. Kind of data set: Induction of cell cycle arrest in human HGC-27 cells assessed as upregulation of p27 expression at 0.1 to 1.6 uM incubated for 48 hrs by Western blot analysis. Format: functional, cell-based. Particulars: dose 0.1-1.6 µM.

Active and inactive are the calls of the source. The calls are words filed in the database; no cut-off is given here.

For the compound `O=C(NCc1ccc(NC(=O)c2ccccc2N2CCCC2)cc1)OCc1cccnc1`, the Activity was 1.59% in the data set with HGC-27 [1] and 17.4% with HGC-27 [2]. Besides, the outcome with HGC-27 [3], in the data set on HGC-27 [4], in the data set with MGC-803 [5] and in the data set with HGC-27 [6] was Active.
Take `O=C(NCc1ccc(NC(=O)c2cc(F)ccc2N2CCCC2)cc1)OCc1cccnc1`: the Activity in the data set with MGC-803 [7] is on record as 16.8%; in the data set with HGC-27 [9] it was 2.63%; in [10], 6.28 fL; in data set [12], “Non-Toxic”; in [14], “Non-Toxic”; in data set [17], 5.6 fL. The result in the data set with MGC-803 [8], with HGC-27 [11], with HGC-27 [13], in the data set with HGC-27 [15], in the data set on HGC-27 [16] and in the data set on MGC-803 [18] was Active. Moreover, the outcome with HGC-27 [19] was Active.
